# Test results from patent US8932558B2, “Multi-subunit biological complexes for treatment of plaque-associated diseases” (Plaxgen Inc, priority 2007, dated 2015).
# Experiments:
# Type in all cases: biochemical
# [1] = tested on: thrombus generated from the in vitro assembled plaques complexes; test: Thrombolytic assay with PLG cascade proteins; conditions: thrombus from cholesterol, lipids, CP and CO complexes
# Description: To examine this, both PLG and PLG activators are used to target these clots. Thrombolytic assays are carried out in 100 μl reaction containing thrombus, generated from 100 μl of aggregates or plaque complexes, 1 μg of PLG and 20 ng of u-PA or t-PA in PBS buffer. The reactions are incubated at 37° C. for 1 hr and after every 15 min the tubes are gently tapped to mix the contents. After 1 hr incubation, 1 ml of PBS is added to all the tubes and the samples are visually examined for dissolution of the thrombus.
# The thrombus generated from the cholesterol, lipids, CP, and CO complexes are incubated separately with PLG, u-PA and t-PA to examine whether these proteins individually could dissolve the clots.
# This could be due to the inhibition of u-PA by the PAI-1 thereby preventing the activation of the PLG. In the next experiment, the aggregates of CP-Cholesterol, CP-Lipids, CP-Cholesterol-Lipids, Cholesterol-Lipids, CO-Cholesterol and CO-Lipids are individually used in CPA for five cycles to assemble complexes followed by their thrombus generation.
# The example depicted in FIG. 18 illustrates the dissolution of thrombi by PLG and u-PA. […] Both the clots and the dissolved complexes are further examined under microscope to confirm the visual examination (FIGS. 18a, b, c and d). The thrombus formed in the urine is also dissolved by the action of PLG and u-PA.
# [2] = tested on: iron loaded abeta42 aggregates mixed with CE proteins; test: Proteolysis of amyloid plaque complexes assembled on iron loaded abeta42 aggregates; conditions: 20 ng
# Description: This example illustrates the use of the invention to evaluate the proteolytic degradation of the amyloid complexes. For example, iron loaded abeta42 aggregates are mixed with CE proteins, and the resulting template complexes are treated with five different serine proteases. More specifically, nine independent reactions are carried out with each containing 5.0 μg of the iron-loaded aggregates of abeta42 and 6.0 μg of the CE proteins. After incubation and washing, the complexes are suspended in 50 μl of PBS. The nine complexes are sub-divided into two groups, with six individual complexes comprising Group I and three complexes comprising Group II. In order to interrogate the role of the plasminogen (PLG) activation system, which is implicated in the catabolism of amyloid peptides as well as the pathobiology of amyloid diseases (Melchor J P et al, 2003; Van Nostrand W E et al, 1999; Kranenburg O, 2005), the Group II complexes are subjected to another cycle of binding with both PLG (0.5 μg) and BSA (0.5 μg) proteins. After binding and washing, the PLG and BSA bound plaques complexes are suspended in 50 μl of PBS.
# For proteolysis analysis, five of the six Group I template complexes are incubated with 20 ng of each protease (plasnin, chymotrypsin, trypsin, proteinase K and urokinase). The remaining complex is used as a control without protease treatment. Among three complexes of the Group II containing PLG attached to them, one is treated with u-PA (20 ng), a second is treated with t-PA (20 ng) and the third complex is used as a control without protease treatment. All these plaque complexes are incubated at 37° C. for 1 hr and after every 15 min, the tubes are gently tapped in order to encourage mixing. After washing, both the proteases-treated and control plaque complexes are suspended in 20 μl PBS. The complexes are boiled for 10 min with sample solubilizing buffer and loaded in to 4-20% gradient SDS-PAGE. Further, the gels are processed for silver staining and the results are documented for further analysis.
# [3] = molecular target: T1, iron-loaded abeta40 templates plaque complex (Homo sapiens, UniProt P00747); test: Proteolysis of plaque complexes assembled on iron-loaded abeta40 templates
# T1 construct: Lys-Plasminogen (PLG); purchased Enzyme Research Laboratories (IN, USA)
# T1 sequence (P00747 97-810, one chain of several): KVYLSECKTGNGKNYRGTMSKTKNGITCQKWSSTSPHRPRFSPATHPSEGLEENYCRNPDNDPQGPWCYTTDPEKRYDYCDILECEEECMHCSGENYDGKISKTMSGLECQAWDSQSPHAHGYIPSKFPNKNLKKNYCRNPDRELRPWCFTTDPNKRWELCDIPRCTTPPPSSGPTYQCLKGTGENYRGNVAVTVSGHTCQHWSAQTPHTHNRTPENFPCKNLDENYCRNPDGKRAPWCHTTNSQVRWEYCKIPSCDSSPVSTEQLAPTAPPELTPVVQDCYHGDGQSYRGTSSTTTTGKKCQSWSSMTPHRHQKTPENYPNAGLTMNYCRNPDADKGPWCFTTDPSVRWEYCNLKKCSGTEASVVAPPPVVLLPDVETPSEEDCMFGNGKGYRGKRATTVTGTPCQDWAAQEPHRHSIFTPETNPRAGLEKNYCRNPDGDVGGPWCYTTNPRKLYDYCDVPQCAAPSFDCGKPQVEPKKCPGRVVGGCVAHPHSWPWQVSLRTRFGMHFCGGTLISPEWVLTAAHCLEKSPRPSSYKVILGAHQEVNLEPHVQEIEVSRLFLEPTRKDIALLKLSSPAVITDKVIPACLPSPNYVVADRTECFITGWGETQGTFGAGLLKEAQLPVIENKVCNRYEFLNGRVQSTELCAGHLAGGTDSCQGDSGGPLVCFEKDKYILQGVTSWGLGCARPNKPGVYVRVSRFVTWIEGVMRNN
# Description: In order to verify the preceding results, such experiments are repeated using iron-loaded abeta40 templates for plaque complex formation. Proteins binding to the abeta40 templates appear to be cleared when they are treated with the same proteases.
# [4] = molecular target: T2, pre-assembled amyloid plaque like complexes (iron-loaded abeta42 templates) (Homo sapiens, UniProt P00747); test: Dissolution of pre-assembled amyloid plaque like complexes; conditions: 20 ng, 37° C., 1 hr
# T2 construct: Lys-Plasminogen (PLG); purchased Enzyme Research Laboratories (IN, USA)
# T2 sequence (P00747 97-810, one chain of several): as above
# Description: In order to identify lead compounds able to dissolve the pre-assembled amyloid plaque like complexes, the preceding experiments are repeated to assemble complexes in three cycles using the iron-loaded abeta42 templates. Then, 50 μl of the resulting complexes is incubated with test compound/s (50 ng to 1 μg) for 1 hr at 37° C. followed by washing and analysis of the complexes for their dissolution. For example, 50 μl of the pre-assembled complexes is mixed with u-PA or t-PA (20 ng) at 37° C. for 1 hr followed by washing and protein estimation or gel analysis of the resultant complexes. […] This approach is also useful to optimize u-PA (PGN54) molecule for use as a therapeutic lead to treat patients with advanced amyloid diseases such as Alzheimer. Reducing the amyloid plaque burden or plaque build-up in the cerebral arteries would greatly improve or reverse the pathological symptoms associated with the amyloid diseases. In addition, to test the hypothesis of amyloid plaque burden reduction as an effective strategy, optimized u-PA or other plasminogen activators are used in the animal models of Alzheimer's disease.
substance,measurement,setting,value
t-PA: tissue-type plasminogen activator,"Dissolution of thrombus, protein incubated separately",[1],did not show any dissolution
same,Activation of PLG on PLG/BSA-attached complexes,[2],the inactive PLG is converted into active plasmin
same,Activation of PLG-bound complex,[3],activate the PLG-bound complex
same,Protein concentration of pre-assembled complexes after incubation,[4],show reduction in the protein concentration
